This note sets out measurements from EP4104818A1, “OPHTHALMIC COMPOSITION COMPRISING XANTHOHUMOL” (Skeye Pharma GbR, priority 2021, dated 2022).

Experiment [1] deals with human corneal epithelial cells. The experiment in a line: cells. The conditions noted are these: Corneal epithelial cell, 24 h, read-out: cell viability. Format: cell-based. As for the experimental part:
Human corneal epithelial cells (hCEC; SCCE016; Merck Millipore, Burlington, MA, USA) were cultured in corneal epithelial cell growth medium with supplement mix (LGC Standards, Teddington, United Kingdom). Approximately 10,000 hCECs were seeded onto each well of a 96-well cell-culture dishes (NUNC, Langenselbold, Germany). Confluent cells were used for Water-soluble tetrazolium salt (WST-1) cell proliferation assays (Hoffmann-La Roche AG, Basel, Switzerland). After 24 hours of incubation with 100 µl of corneal epithelial cell growth medium without its supplement mix (LGC Standards, Teddington, United Kingdom), hCECs were treated with different concentrations of xanthohumol (XH; Selleckchem, Houston, TX, USA) dissolved in dimethyl sulfoxide (DMSO; Carl Roth AG, Karlsruhe, Germany). Control groups were treated with DMSO only. Following another 72 hours of incubation, the cells were incubated with the WST-1 solution for 30 minutes. Substrate turnover was measured with an ELISA reader at 450 nm (Spectramax 190; Molecular Devices, Sunnyvale, CA, USA) and a reference at 690 nm. To determine potential anti-oxidative effects of xanthohumol, hCECs were incubated and treated analogous to the above-mentioned WST-1 cell proliferation assay with minor modifications. […] Following another incubation of the hCECs for 24 hours, the WST-1 assay was further finalized according to the description above.

For experiment [2], the system named is Intracellular, mitochondrial reactive oxygen species (ROS). The experiment can be described thus: Dihydrorhodamine-123 (DHR-123) assay of intracellular ROS. Format: cell-based. The conditions noted are these: Homo sapiens, HCEC, 2 hours. How it is done: Intracellular, mitochondrial reactive oxygen species (ROS) were assessed using the cell membrane permeable dihydrorhodamine-123 (DHR-123) assay (D23806; ThermoFisher Scientific, Waltham, MA, USA) according to the manufacturer's instructions. Measurements were made after exposing human corneal epithelial cells to H2O2, xanthohumol or DMSO only for 2 hours. For ROS staining, cells were incubated with 10 µM DHR-123 for 15 minutes. Nucleus staining was performed using Hoechst 33342 nucleic acid stain (H1399; ThermoFisher Scientific, Waltham, MA, USA). Randomly, a minimum of 3 images of every treatment group were acquired with a 20x fluorescence objective using the aforementioned Axio Observer 7. Results were expressed in percent of fluorescence intensity relative to the baseline measurement in the DMSO control group. For quantification of the fluorescence signals, the microscope software ZEN 3.0 (Carl Zeiss AG, Jena, Germany) was used.

Experiment [3] deals with Human corneal epithelial cells (hCEC). The experiment can be described thus: WST-1 cell viability assay. Format: cell-based. Conditions: 72 hours of incubation, hCECs, compared to the DMSO-treated control group. How it is done:
Human corneal epithelial cells (hCEC; SCCE016; Merck Millipore, Burlington, MA, USA) were cultured in corneal epithelial cell growth medium with supplement mix (LGC Standards, Teddington, United Kingdom). Approximately 10,000 hCECs were seeded onto each well of a 96-well cell-culture dishes (NUNC, Langenselbold, Germany). Confluent cells were used for Water-soluble tetrazolium salt (WST-1) cell proliferation assays (Hoffmann-La Roche AG, Basel, Switzerland). After 24 hours of incubation with 100 µl of corneal epithelial cell growth medium without its supplement mix (LGC Standards, Teddington, United Kingdom), hCECs were treated with different concentrations of xanthohumol (XH; Selleckchem, Houston, TX, USA) dissolved in dimethyl sulfoxide (DMSO; Carl Roth AG, Karlsruhe, Germany). Control groups were treated with DMSO only. Following another 72 hours of incubation, the cells were incubated with the WST-1 solution for 30 minutes. Substrate turnover was measured with an ELISA reader at 450 nm (Spectramax 190; Molecular Devices, Sunnyvale, CA, USA) and a reference at 690 nm.
(In general: Tetrazolium assays rely on reduction of a dye to a coloured formazan, in cell work by metabolically active cells.)

Experiment [4] relates to hCEC. The experiment can be described thus: BrdU cell proliferation ELISA. The experiment is classed as cell-based. Conditions: Homo sapiens, 24 hours, hCECs, no significant change. How it is done: Proliferation of hCEC was determined using a 5-bromo-2'-deoxyuridine (BrdU) ELISA in accordance with the manufacturers' recommendations (Merck KGaA, Darmstadt, Germany). In brief, approximately 7,000 cells were seeded onto a 96-well cell culture plat e and incubated for 24h to achieve complete adherence of the cells. After 24 hours of incubation with 100 µl of corneal epithelial cell growth medium without its' supplement mix, hCECs were treated with xanthohumol dissolved in DMSO. Following another 24 hours of incubation with BrdU labeling solution, cells were fixed and incubated with anti-BrdU antibodies according to the manufacturer's recommendations. BrdU incorporation into the DNA of hCECs was quantified by absorbance measurement at 450 nm.
(In an ELISA, binding on a coated surface is turned into a signal by an enzyme label.)

In experiment [5] the test system is hCEC. The experiment can be described thus: Cell scratch assay (hCEC migration / wound healing in vitro). Format: cell-based, Human. How it is done: To analyze hCEC migration in vitro, cells were cultured in corneal epithelial cell growth medium with supplement mix until confluence of the cells of a 6-well cell culture plate. Following an incubation period of 24 hours in cell culture medium without supplements, 5 linear scratches were performed in each well using a 200 µl pipette tip (Eppendorf AG, Hamburg, Germany). The hCECs were then incubated prospectively under treatment with xanthohumol or DMSO as a control for up to 72 hours. Reference images were acquired at the beginning of the incubation period using the phase contrast mode on an Axio Observer 7 (Carl Zeiss AG, Jena, Germany). Every 24 hours, follow-up images of 4-5 different scratch sections were acquired. The size of the wound area was analyzed using a semi-automated analysis tool in ImageJ 1.53a (National Institute of Health, Bethesda, MD, USA).

For a further experiment, the system named is bovine corneas. The experiment in a line: Corneal erosion assay on bovine corneas ex vivo. The conditions noted are these: up to 72 hours, every 12 hours, compared to the DMSO-treated control group. How it is done:
Furthermore, corneal epithelial cell wound healing was determined on bovine corneas ex vivo. Bovine globes were obtained from a local butchery following approval by the authority for waste management of animal carcasses (ID: DE 09 162 0066-219) and processed within 12 hours post-mortem. The bovine globes were washed in 10% w/v povidone-iodine for 5 minutes. A circular corneal epithelial erosion was created using an 8 mm trephine and a hockey knife (Katena Products Inc., Parsippany, NJ, USA). Subsequently, a sclerocorneal ring was excised with eye scissors (Katena Products Inc., Parsippany, NJ, USA) and transferred to a 60 mm cell culture plate. To acquire reference images of the corneal erosion, the wound area was stained with a 0.8 mg/ml fluorescein sodium solution and illuminated with blue light (approximate wavelength 490 nm). Images were acquired using a distance-fixed digital single lens reflex camera equipped with a macro lens (Canon Inc., Tokyo, Japan). Consequently, the sclerocorneal rings were incubated in Dulbecco's Modified Eagle's Medium (Bio&SELL GmbH, Feucht, Germany) supplemented with 50 IU penicillin/ml and 50 µg streptomycin/ml (Merck Millipore, Burlington, MA, USA) and xanthohumol or DMSO only. Follow-up images were acquired every 12 hours, the cell culture medium was renewed daily.

A word on the viability: it is a read-out of living cells in per cent, often relative to untreated cells. Regarding `OO` [H2O2, hydrogen peroxide, reference compound], the viability at 100 µM in experiment [1] worked out at 79 ± 14%. For the same molecule, in experiment [2] (H2O2 100 µM only, compared to the control group, read-out: DHE-123 fluorescence), the activity at 100 µM is 149 ± 9%.

As for `COc1cc(O)c(CC=C(C)C)c(O)c1C(=O)/C=C/c1ccc(O)cc1` [xanthohumol, 1-[2,4-Dihydroxy-6-methoxy-3-(3-methyl-but-2-enyl)-phenyl]-3-(4-hydroxyphenyl)-propenon], the viability at 1 µM in experiment [3] (1 µM) was 144 ± 26%; in experiment [1], 91 ± 11%. For the same molecule, the figures for the viability at 2.5 µM in experiment [3] (2.5 µM) and in experiment [1] were 127 ± 11% and 96 ± 4%, respectively. In experiment [3] (5 µM, not significant), the viability at 5 µM was 121 ± 24%. The activity at 1 µM in the experiment on hCEC [4] (1 µM) is 112 ± 26%; in experiment [2] (1 µM xanthohumol with H2O2 100 µM, relative to the DMSO control group, read-out: DHR-123 fluorescence), 97 ± 16%. The activity at 2.5 µM in the experiment with hCEC [4] (2.5 µM) is 107 ± 16%; in experiment [2] (2.5 µM xanthohumol with H2O2 100 µM, relative to the DMSO control group, read-out: DHR-123 fluorescence), 95 ± 26%. The activity at 5 µM in the experiment on hCEC [4] (5 µM) worked out at 95 ± 8%. Besides, the wound area in the experiment with hCEC [5] (1 µM, 72 hours of incubation, control group 73 ± 9%) is reported as 63 ± 14%; with hCEC [5] (2.5 µM, 72 hours of incubation, control group 73 ± 9%), 58 ± 18%; in the experiment with hCEC [5] (2.5 µM, after 48 hours, control group 76 ± 7%), 66 ± 11%. In addition, the speed of re-epithelialization entry in the experiment with bovine corneas (1 µM) and in the experiment on bovine corneas (2.5 µM) was “did not show any significant difference” in each case.
